Columns and labels:
MAPK pathway = assay: Western blot of MAPK signaling pathway components; type: cell-based, human; conditions: DLD-1 and HCT116, 10 μM, 72 h
Excerpt: SR18662 negatively regulates MAPK and WNT signaling pathway and cyclin levels. Myriad publications have shown that in both in vitro and in vivo contexts KLF5 is regulated by MAPK and WNT signaling pathways and that KLF5, in turn, has the ability to modulate the activity of these pathways (14, 18, 26-32). We have previously shown that treatment of CRCs with ML264 results in decreased activity of both the MAPK and WNT signaling pathways (24). Because SR15006 and SRI8662 are structurally related to ML264, we decided to investigate their ability to alter the expression levels of the components of these pathways. Thus, we treated DLD-1 and HCT116 CRCs with DMSO (vehicle) and tested compounds at 1 μM or 10 μM, collecting the cells for western blot analysis at 24, 48, and 72 h. […] Similar effects were seen when both cell lines were treated these compounds at 1 μM. Furthermore, the inhibitory effects of SR18662 on the components of the MAPK signaling pathway we observed at earlier time points than were apparent following treatment with ML264 or SR15006.
(§1) Western blot analysis. Total protein was extracted from cells with Laemmli buffer and the analysis was performed as described previously (24).

DLD-1-derived xenografts = assay: Histology, immunofluorescence and immunohistochemistry of DLD-1-derived xenografts; type: in vivo, mouse
Method: SR18862 inhibits the growth of CRC xenografts in vivo. To evaluate SRI8662 in an in vivo model we used CRC cells for a mouse xenograft study. As described in more detail in the Examples section, nude mice were injected with DLD-1 CRC cells. Tumors were allowed to grow to an approximate size of 100 mm^3, and then mice were injected with vehicle or with varied concentrations of SR18662, given once a day or twice a day for five days, followed by two days without injection, and then followed by five days with injections. The experiment was completed the day after the last injection. […] Significant differences in tumor size are apparent at the end of the treatment schedule (FIG. 6B). To further characterize the impact of SR18662 on the features of isolated tumors, we compared vehicle-treated mice with mice that had been treated with SR18662 twice a day. […] Because SR18662 had induced cell apoptosis and death in the in vitro setting, we stained the xenografts with PanCK and TUNEL to estimate the levels of apoptosis in the in vivo context.
Immunofluorescence and immunohistochemistry. Tumors dissected from mice were first fixed in Bouin's fixative (50% ethanol+5% acetic acid in water) for 1 h, then fixed overnight in 10% buffered formalin (Fisher Scientific). The tissues were then paraffin-embedded using an automated processor, sectioned at 5 μm, collected onto charged slides and baked in a 65° C. oven overnight, and were subsequently deparaffinized in xylene. […]
Tissue sections were first incubated with blocking buffer (5% BSA in TBS-Tween) for 30 min at 37° C. and then with primary antibody at 4° C. overnight in a humidified chamber with gentle shaking. […] Slides were analyzed under a Nikon Eclipse 90i microscope (Nikon) and representative photomicrographs were taken. […]

KLF5 = assay: Western blot of KLF5 protein levels in DLD-1 cells; type: cell-based, human; conditions: 1 μM and 10 μM, 24 h
Method: In this experiment the test compounds were at 1 μM and 10 μM, and protein levels were measured after 24 h.
as §1

[1] = tested on: HCT-116 colorectal cancer cell line; assay: MTT growth assay, HCT-116; type: cell-based; conditions: Homo sapiens, Table 1
Excerpt: The observed activity is greater than that previously seen for ML264.

DLD-1 cells = assay: Apoptosis assay (Annexin V/PI, FACS), DLD-1; type: cell-based, human
Method: We performed an apoptosis assay using DLD-1 and HCT116 cells treated with vehicle or 1 μM or 10 μM of test compounds over the course of three days with Annexin V/P1 stain in combination with FACS analysis. […] This is accompanied by an increase in the population of cells in early and late apoptosis, as well as an increase in the dead cell population over the three days of treatment. […] This effect was more pronounced upon treatment with SR18662 than ML264 or SR15006 (FIGS. 4D-F). When a lower concentration (1 μM) of test compounds was used, only a small increase of the population of cells undergoing early apoptosis was seen after 72 h treatment with SRI8662.
Cell proliferation, cell cycle and apoptosis assays. For cell proliferation experiments, cell cycle, and apoptosis determination, DLD-1 and HCT116 cells were treated with 1 or 10 μM of each compound or with vehicle (DMSO). The cells were collected at 24, 48, and 72 h post-treatment and analyzed as previously described (24). Each experiment was performed in triplicate.

EGR-1 = assay: Western blot of EGR-1 protein levels in DLD-1 cells; type: cell-based, human; conditions: 1 μM and 10 μM, 24 h
Method: We have studied the effects of SR18662 upon lowering KLF5 levels in colon cancer cell lines. […] The levels of the protein EGR-1 are lowered as well. In this experiment the test compounds were at 1 μM and 10 μM, and protein levels were measured after 24 h. […] The study was also repeated using HCT-116 cells rather than DLD-1 cells, with similar results. These compounds appear to dose-dependently reduce levels of KLF5 and EGR-1 proteins.
as §1

[2] = 25 mg/kg twice per day vs vehicle

EC50 [1]: 22 nM
SMILES: CS(=O)(=O)N1CCN(C(=O)CNC(=O)/C=C/c2ccc(Cl)c(Cl)c2)CC1 [Example 9, (E)-3-(3,4-dichlorophenyl)-N-(2-(4-(methylsulfonyl)piperazin-1-yl)-2-oxoethyl)acrylamide]
expression levels of MAPK pathway components (MAPK pathway): negatively regulated the expression levels of the components of the MAPK pathway | expression levels of KLF5 and EGR1 in xenografts (DLD-1-derived xenografts; 25 mg/kg twice a day, immunohistochemistry): significantly decreased | TUNEL staining in xenografts (DLD-1-derived xenografts; [2]): increase of TUNEL staining | fibrosis (PanCK/Vimentin stain) in xenografts (DLD-1-derived xenografts; [2]): higher level of fibrosis | KLF5 protein levels by Western blot (KLF5): significantly reduced | healthy cell count and apoptosis (DLD-1 cells; DLD-1, 1 μM, 48 h and 72 h): decrease in healthy cell count at 48 h and 72 h and an increase in early and late apoptosis | population of healthy cells (DLD-1 cells; DLD-1, 10 μM, 48 and 72 h): significant decrease in the population of healthy cells | EGR-1 protein levels by Western blot (EGR-1): lowered

— patent US12486227B2, “Small molecules for cancer therapy that reduce the expression of transcription factors KLF5 and EGR-1” (University of Florida Research Foundation, Incorporated, priority 2019, dated 2025)
